pIC50: −log10 of the molar value.
Legend:
[1] = target: T1, recombinant human HDAC-1 enzyme (rHDAC-1) (Homo sapiens, UniProt Q13547); experiment: Histone deacetylase inhibition, recombinant human HDAC-1; assay type: biochemical; conditions: cloned recombinant human HDAC-1 from Baculovirus insect cell expression system
T1 construct: made in house; host or cells: Baculovirus insect cell expression system
Procedure: (§1) The reaction was stopped by adding acetic acid (0.04 M, final concentration) and HCl (250 mM, final concentration). The mixture was extracted with ethyl acetate and the released [^3H]-acetic acid was quantified by scintillation counting. For inhibition studies, the enzyme was preincubated with compounds at 4° C. for 30 minutes prior to initiation of the enzymatic assay. IC50 values for HDAC enzyme inhibitors were determined by performing dose response curves with individual compounds and determining the concentration of inhibitor producing fifty percent of the maximal inhibition.

[2] = tested on: histone deacetylase in nuclear extracts from H446 cells (pooled HDACs); experiment: Histone deacetylase inhibition, H446 nuclear extracts (pooled HDACs); assay type: biochemical, human; conditions: for pooled HDACs percent inhibition at the specified concentration: @ 20 μM; for pIC50: [3H]-acetylated histone substrate
Procedure: as §1

T1 sequence (Q13547 whole entry): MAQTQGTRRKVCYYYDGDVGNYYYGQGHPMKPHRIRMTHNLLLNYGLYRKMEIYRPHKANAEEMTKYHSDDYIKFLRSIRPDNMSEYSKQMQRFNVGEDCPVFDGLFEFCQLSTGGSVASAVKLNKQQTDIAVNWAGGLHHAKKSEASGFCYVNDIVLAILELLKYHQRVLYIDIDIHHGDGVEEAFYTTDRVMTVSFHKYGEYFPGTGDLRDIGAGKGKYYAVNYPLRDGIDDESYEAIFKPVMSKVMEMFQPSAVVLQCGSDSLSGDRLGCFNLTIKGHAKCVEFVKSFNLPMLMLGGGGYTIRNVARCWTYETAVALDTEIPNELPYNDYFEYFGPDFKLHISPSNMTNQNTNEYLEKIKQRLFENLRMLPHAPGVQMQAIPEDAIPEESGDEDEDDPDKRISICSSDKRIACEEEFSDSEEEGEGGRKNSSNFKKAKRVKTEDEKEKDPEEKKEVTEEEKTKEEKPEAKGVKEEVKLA

SMILES | pIC50 [1] | pIC50 [2] | pooled HDACs percent inhibition at the specified concentration [2] [% @ 20 μM]
O=C(CCCc1ccc(C(=O)NO)cc1)c1ccccc1 [Compound 177] |  |  | 10
O=C(CCCc1ccc(CCCCc2ccccc2)cc1)NO [Compound 156] | 6.12 |  | 
O=C(CCCc1ccc(CCCc2ccccc2)cc1)NO [Compound 155] |  |  | 39
O=C(NO)c1ccc(CCCCCc2ccccc2)cc1 [Compound 153] | 5.32 |  | 
O=C(Cc1ccc(CCCc2ccccc2)cc1)NO [Compound 175] |  | < 4.70 | 
Nc1ccccc1NC(=O)/C=C/c1ccc(CC(=O)c2ccccc2)o1 [Compound 139] |  |  | 44
CN(C)c1ccc(CCc2ccccc2C(=O)NO)cc1 [Compound 173] |  |  | 35
O=C(CCc1ccc(CCc2ccccc2)cc1)NO [Compound 157] | 5.62 |  | 
O=C(CCC1CCC(CC(=O)c2ccccc2)O1)NO (stereo not drawn) [Compound 176] |  |  | 20
Nc1ccccc1NC(=O)/C=C/C#Cc1cccc(NS(=O)(=O)c2ccccc2)c1 [Compound 168] |  |  | 0
O=C(CCc1ccc(CCCCc2ccccc2)cc1)NO [Compound 154] | 6.05 | 5.70 | 
Nc1ccccc1NC(=O)c1ccc(CC(=O)c2ccccc2)o1 [Compound 178] |  |  | 2

Second part, led by results:

pIC50 [1] | pIC50 [2] | SMILES | pooled HDACs percent inhibition at the specified concentration [2] [% @ 20 μM]
5.82 |  | Cc1ccc(NS(=O)(=O)c2ccc(/C=C/C(=O)Nc3ccccc3N)cc2)cc1 [Compound 159] | 
5.64 |  | COc1ccc(S(=O)(=O)Nc2ccc(/C=C/C(=O)Nc3ccccc3N)cc2)cc1 [Compound 122] | 
6.30 |  | O=C(/C=C/c1ccc(CC(O)c2ccccc2)o1)NO (stereo not drawn) [Compound 136] | 
5.92 |  | Nc1ccccc1NC(=O)/C=C/c1ccc(S(=O)(=O)Nc2ccc(-c3ccccc3)cc2)cc1 [Compound 160] | 
6.32 |  | COc1ccc(NC(=O)Nc2ccc(/C=C/C(=O)NO)cc2)cc1OC [Compound 147] | 
5.70 |  | O=C(/C=C/c1ccc(NS(=O)(=O)c2ccc(-c3ccccc3)cc2)cc1)Nc1nnc(S)s1 [Compound 165] | 
7.00 |  | O=C(NO)c1ccc(CCCC(O)c2ccc3ccccc3c2)cc1 (stereo not drawn) [Compound 149] | 8
5.64 |  | O=C(NO)c1ccc(/C=C/c2ccccc2)cc1 [Compound 151] | 
6.04 |  | O=C(/C=C/c1ccc(NC(=O)Nc2cccc3ccccc23)cc1)NO [Compound 146] | 
4.64 |  | COc1ccc(S(=O)(=O)Nc2ccc(CCC(=O)Nc3ccccc3N)cc2)cc1OC [Compound 121] | 
5.16 |  | Nc1ccccc1NC(=O)CCc1ccc(CC(=O)c2ccccc2)o1 [Compound 144] | 6
7.30 |  | Cc1ccc(NS(=O)(=O)c2ccc(/C=C/C(=O)NO)cc2)cc1 [Compound 161] | 
5.30 |  | COc1ccc(NS(=O)(=O)c2ccc(/C=C/C(=O)Nc3nnc(S)s3)cc2)cc1OC [Compound 164] | 
5.64 |  | COc1ccc(NS(=O)(=O)c2ccc(/C=C/C(=O)Nc3ccccc3N)cc2)cc1OC [Compound 118] | 
6.52 |  | O=C(C#Cc1ccc(NS(=O)(=O)c2ccc(-c3ccccc3)cc2)cc1)NO [Compound 128] | 

Reference: USRE43343E1, “Inhibitors of histone deacetylase” (Methylgene Inc., priority 1999, dated 2012)
